# Source: PMC10507085, “Pharmacological inhibition of TBK1/IKKε blunts immunopathology in a murine model of SARS-CoV-2 infection” (Nature Communications, 2023)
# Tests used:
# Experiment in all cases: biochemical
# Design in all cases: KINOMEscan competition binding, DNA-tagged kinase against immobilised ligand, qPCR read-out
# Details in all cases: read-out: Percent Control
# CDKL5 = CDKL5 (Homo sapiens, UniProt O76039)
# [1] = biological target: T1, RSK1(Kin.Dom.2-C-terminal) (Homo sapiens, UniProt Q15418)
# T1 construct: gene RPS6KA1; Kin.Dom.2 C-terminal
# T1 sequence (Q15418 whole entry): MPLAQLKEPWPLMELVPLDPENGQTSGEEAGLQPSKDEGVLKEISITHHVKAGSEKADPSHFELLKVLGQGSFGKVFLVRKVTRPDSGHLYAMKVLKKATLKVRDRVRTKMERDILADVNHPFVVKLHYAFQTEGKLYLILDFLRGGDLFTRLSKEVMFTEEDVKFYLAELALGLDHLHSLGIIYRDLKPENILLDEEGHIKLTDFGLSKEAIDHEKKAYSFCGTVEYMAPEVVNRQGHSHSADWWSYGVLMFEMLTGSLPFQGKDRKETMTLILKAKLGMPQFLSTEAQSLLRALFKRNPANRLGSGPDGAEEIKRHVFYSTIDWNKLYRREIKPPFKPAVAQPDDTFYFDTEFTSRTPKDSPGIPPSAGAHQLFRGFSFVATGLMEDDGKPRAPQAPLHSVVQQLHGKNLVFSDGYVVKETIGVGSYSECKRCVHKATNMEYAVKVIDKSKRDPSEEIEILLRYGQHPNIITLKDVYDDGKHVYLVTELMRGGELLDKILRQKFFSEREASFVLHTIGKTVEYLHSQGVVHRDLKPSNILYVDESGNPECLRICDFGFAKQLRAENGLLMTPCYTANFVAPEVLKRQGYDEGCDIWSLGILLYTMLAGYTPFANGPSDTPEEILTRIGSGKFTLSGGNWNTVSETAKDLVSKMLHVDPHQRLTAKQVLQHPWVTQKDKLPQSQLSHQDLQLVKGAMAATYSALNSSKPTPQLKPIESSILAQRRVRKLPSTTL
# ERN1 = ERN1 (Homo sapiens, UniProt O75460)
# ABL1-phosphorylated = biological target: T2, ABL1-phosphorylated (Homo sapiens, UniProt P00519)
# T2 construct: phosphorylated
# T2 sequence (P00519 whole entry): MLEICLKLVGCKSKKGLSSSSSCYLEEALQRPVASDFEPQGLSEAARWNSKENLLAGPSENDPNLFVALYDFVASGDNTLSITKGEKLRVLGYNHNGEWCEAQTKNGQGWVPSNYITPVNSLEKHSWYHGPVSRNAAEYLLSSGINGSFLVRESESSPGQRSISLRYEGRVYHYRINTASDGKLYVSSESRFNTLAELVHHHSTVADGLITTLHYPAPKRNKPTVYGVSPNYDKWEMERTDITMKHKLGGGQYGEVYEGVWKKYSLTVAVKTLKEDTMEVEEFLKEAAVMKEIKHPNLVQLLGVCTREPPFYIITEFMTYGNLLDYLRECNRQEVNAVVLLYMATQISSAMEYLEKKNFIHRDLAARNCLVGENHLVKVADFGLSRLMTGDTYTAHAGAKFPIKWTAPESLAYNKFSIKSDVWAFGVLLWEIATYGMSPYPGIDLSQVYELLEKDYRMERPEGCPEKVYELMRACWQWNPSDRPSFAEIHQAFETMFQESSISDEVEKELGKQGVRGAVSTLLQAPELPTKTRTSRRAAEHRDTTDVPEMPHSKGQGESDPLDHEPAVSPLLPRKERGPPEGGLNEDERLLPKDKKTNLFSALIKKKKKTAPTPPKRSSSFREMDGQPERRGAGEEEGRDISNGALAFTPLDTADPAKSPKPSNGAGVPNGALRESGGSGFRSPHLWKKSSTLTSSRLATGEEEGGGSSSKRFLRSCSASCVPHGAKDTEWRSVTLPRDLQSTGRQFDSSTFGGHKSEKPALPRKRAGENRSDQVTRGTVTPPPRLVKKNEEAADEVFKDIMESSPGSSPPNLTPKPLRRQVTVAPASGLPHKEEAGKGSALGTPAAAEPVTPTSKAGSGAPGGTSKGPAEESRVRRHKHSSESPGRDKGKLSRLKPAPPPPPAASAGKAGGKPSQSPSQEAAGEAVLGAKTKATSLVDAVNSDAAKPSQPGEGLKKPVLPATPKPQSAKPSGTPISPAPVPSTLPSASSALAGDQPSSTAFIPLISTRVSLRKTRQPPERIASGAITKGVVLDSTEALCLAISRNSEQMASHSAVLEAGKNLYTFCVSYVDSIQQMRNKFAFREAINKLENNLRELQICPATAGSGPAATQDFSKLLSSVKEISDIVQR
# TAOK3 = TAOK3 (Homo sapiens, UniProt Q9H2K8)
# FGFR3 = FGFR3 (Homo sapiens, UniProt P22607)
# Chain of FGFR3 (P22607 whole entry): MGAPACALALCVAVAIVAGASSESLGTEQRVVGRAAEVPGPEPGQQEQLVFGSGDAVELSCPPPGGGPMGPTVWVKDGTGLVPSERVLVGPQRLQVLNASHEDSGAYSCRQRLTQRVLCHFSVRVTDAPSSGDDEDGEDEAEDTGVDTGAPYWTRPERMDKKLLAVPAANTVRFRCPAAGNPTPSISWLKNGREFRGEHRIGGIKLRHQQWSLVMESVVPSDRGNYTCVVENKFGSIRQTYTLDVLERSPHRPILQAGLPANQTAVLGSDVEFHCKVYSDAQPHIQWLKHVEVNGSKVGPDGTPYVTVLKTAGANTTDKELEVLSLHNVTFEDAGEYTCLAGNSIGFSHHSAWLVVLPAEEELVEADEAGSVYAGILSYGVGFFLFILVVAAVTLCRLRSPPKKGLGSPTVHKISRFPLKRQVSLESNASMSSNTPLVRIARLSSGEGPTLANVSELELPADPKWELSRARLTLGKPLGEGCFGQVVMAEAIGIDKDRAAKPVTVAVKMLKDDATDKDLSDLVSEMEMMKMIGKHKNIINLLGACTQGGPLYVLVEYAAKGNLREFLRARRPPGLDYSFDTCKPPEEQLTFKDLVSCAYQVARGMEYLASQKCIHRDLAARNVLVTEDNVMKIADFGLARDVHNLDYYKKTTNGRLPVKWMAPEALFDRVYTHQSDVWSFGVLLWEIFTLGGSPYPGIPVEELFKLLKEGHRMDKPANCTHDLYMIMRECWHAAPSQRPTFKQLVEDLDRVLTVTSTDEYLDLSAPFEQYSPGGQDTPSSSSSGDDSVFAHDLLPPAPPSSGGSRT
# CDK4-cyclinD3 = CDK4-cyclinD3 (Homo sapiens, UniProt P11802)
# MYLK = MYLK (Homo sapiens, UniProt Q15746)
# [2] = biological target: T3, RPS6KA5(Kin.Dom.1-N-terminal) (Homo sapiens, UniProt O75582)
# T3 construct: Kin.Dom.1 N-terminal
# HIPK4 = HIPK4 (Homo sapiens, UniProt Q8NE63)
# Chain of HIPK4 (Q8NE63 whole entry): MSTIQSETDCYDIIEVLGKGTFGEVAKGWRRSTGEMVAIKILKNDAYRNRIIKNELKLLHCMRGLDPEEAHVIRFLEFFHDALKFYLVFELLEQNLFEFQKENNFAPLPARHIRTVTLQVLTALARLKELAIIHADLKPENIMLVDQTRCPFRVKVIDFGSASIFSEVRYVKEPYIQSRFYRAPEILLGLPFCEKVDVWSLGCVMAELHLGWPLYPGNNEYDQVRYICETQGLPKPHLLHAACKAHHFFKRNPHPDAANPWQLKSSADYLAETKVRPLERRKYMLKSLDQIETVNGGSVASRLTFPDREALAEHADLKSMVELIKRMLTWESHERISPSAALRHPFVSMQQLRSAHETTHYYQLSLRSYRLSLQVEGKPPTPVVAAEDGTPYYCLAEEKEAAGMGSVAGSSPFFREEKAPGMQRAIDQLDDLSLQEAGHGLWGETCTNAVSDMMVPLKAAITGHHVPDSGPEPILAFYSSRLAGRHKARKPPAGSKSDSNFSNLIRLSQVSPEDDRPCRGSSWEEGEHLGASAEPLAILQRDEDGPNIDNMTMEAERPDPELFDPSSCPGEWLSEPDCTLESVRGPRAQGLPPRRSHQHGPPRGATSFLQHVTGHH
# MAP3K3 = MAP3K3 (Homo sapiens, UniProt Q99759)
# TNK2 = TNK2 (Homo sapiens, UniProt Q07912)
# ERBB2 = ERBB2 (Homo sapiens, UniProt P04626)
# RIPK1 = RIPK1 (Homo sapiens, UniProt Q13546)
# DCLK3 = DCLK3 (Homo sapiens, UniProt Q9C098)
# MAPK6 = MAPK6 (Homo sapiens, UniProt Q16659)
# MAP3K13 = MAP3K13 (Homo sapiens, UniProt O43283)
# ACVR1 = ACVR1 (Homo sapiens, UniProt Q04771)
# Chain of ACVR1 (Q04771 whole entry): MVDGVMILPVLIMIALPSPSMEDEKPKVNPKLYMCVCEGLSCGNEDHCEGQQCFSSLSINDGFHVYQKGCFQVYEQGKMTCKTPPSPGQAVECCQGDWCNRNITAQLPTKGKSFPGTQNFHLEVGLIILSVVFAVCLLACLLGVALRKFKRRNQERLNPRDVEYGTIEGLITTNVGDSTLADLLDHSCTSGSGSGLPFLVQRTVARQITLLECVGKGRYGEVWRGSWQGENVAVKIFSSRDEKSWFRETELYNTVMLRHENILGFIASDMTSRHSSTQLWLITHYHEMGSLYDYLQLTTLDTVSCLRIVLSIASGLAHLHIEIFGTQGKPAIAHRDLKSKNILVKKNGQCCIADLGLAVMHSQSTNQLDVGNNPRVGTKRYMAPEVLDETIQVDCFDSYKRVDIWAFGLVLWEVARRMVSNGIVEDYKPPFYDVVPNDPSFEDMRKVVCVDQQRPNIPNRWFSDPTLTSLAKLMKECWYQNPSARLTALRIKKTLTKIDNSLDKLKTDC
# TBK1 = TBK1 (Homo sapiens, UniProt Q9UHD2)
# HIPK2 = HIPK2 (Homo sapiens, UniProt Q9H2X6)
# Chain of CDKL5 (O76039 whole entry): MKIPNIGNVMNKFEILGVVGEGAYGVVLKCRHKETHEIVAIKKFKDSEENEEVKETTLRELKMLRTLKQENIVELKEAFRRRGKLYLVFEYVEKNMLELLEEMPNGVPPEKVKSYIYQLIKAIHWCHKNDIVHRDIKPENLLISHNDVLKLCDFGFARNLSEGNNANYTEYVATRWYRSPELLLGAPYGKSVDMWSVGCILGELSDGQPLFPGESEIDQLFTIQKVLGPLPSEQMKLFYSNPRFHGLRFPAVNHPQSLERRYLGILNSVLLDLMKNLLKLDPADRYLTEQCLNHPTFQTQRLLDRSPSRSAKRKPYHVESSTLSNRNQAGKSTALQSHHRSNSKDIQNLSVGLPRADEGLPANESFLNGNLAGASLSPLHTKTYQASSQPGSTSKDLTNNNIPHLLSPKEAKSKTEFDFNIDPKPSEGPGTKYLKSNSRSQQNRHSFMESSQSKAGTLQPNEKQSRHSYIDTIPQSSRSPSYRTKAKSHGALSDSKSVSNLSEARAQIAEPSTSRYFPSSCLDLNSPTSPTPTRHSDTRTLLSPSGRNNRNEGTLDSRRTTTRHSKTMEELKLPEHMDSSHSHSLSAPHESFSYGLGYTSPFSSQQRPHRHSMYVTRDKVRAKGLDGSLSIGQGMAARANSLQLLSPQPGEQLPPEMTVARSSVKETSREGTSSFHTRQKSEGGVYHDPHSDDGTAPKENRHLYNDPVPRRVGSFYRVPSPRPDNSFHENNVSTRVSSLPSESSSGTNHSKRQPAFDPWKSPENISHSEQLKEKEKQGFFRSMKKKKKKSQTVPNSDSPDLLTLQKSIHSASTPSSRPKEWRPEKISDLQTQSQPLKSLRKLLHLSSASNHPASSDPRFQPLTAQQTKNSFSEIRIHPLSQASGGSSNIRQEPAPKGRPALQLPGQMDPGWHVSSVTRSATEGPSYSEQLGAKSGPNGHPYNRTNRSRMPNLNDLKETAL
compound,measurement,setting,value
"Oc1ccc(C2=Cc3ccc(O)cc3OC2)cc1 [compound 1, idronoxil]",remaining binding at 10 µM,CDKL5,97%
same,remaining binding at 10 µM,[1],69%
same,remaining binding at 10 µM,ERN1,66%
same,remaining binding at 10 µM,ABL1-phosphorylated,35%
same,remaining binding at 10 µM,TAOK3,53%
same,remaining binding at 10 µM,FGFR3,80%
same,remaining binding at 10 µM,CDK4-cyclinD3,85%
same,remaining binding at 10 µM,MYLK,52%
same,remaining binding at 10 µM,[2],100%
same,remaining binding at 10 µM,HIPK4,75%
same,remaining binding at 10 µM,MAP3K3,81%
same,remaining binding at 10 µM,TNK2,91%
same,remaining binding at 10 µM,ERBB2,88%
same,remaining binding at 10 µM,RIPK1,78%
same,remaining binding at 10 µM,DCLK3,92%
same,remaining binding at 10 µM,MAPK6,96%
same,remaining binding at 10 µM,MAP3K13,84%
same,remaining binding at 10 µM,ACVR1,74%
same,remaining binding at 10 µM,TBK1,99%
same,remaining binding at 10 µM,HIPK2,47%
